Source: patent US7973181B2, “Hydroxamic acid derivatives as inhibitors of HDAC enzymatic activity” (Chroma Therapeutics Ltd., priority 2005, dated 2011)

Molecular target: histone deacetylase activity (HeLa nuclear extract)
Assay: HDAC fluorescent activity assay (Biomol Fluor de Lys), HeLa nuclear extract
Type: biochemical
Details: Fluor de Lys substrate
Experimental: The ability of compounds to inhibit histone deacetylase activities was measured using the commercially available HDAC fluorescent activity assay from Biomol. In brief, the Fluor de Lys™ substrate, a lysine with an epsilon-amino acetylation, is incubated with the source of histone deacetylase activity (HeLa nuclear extract) in the presence or absence of inhibitor.
Deacetylation of the substrate sensitises the substrate to Fluor de Lys™ developer, which generates a fluorophore. Thus, incubation of the substrate with a source of HDAC activity results in an increase in signal that is diminished in the presence of an HDAC inhibitor.
Data are expressed as a percentage of the control, measured in the absence of inhibitor, with background signal being subtracted from all samples, as follows: — % activity=((S^i−B)/(S^o−B))×100 where S^i is the signal in the presence of substrate, enzyme and inhibitor, S^o is the signal in the presence of substrate, enzyme and the vehicle in which the inhibitor is dissolved, and B is the background signal measured in the absence of enzyme.
IC50 values were determined by non-linear regression analysis, after fitting the results of eight data points to the equation for sigmoidal dose response with variable slope (% activity against log concentration of compound), using Graphpad Prism software.
Histone deacetylase activity from crude nuclear extract derived from HeLa cells was used for screening. The preparation, purchased from 4C (Seneffe, Belgium), was prepared from HeLa cells harvested whilst in exponential growth phase. The nuclear extract is prepared according to Dignam JD1983 Nucl. Acid. Res. 11, 1475-1489, snap frozen in liquid nitrogen and stored at −80° C. The final buffer composition was 20 mM Hepes, 100 mM KCl, 0.2 mM EDTA, 0.5 mM DTT, 0.2 mM PMSF and 20% (v/v) glycerol.
Results of testing the compounds of the examples in this assay are given in the second column of Table 1 below.

SMILES | IC50 [µM]
N[C@@H](CCOc1ccc(NC(=O)CCCCCCC(=O)NO)cc1)C(=O)O [Example 8, (S)-2-Amino-4-[4-(7-hydroxycarbamoyl-heptanoylamino)-phenoxy]-butyric Acid] | 0.101 to 1
N[C@@H](CCCOc1ccc(CNCc2ccc3cc(C(=O)NO)sc3c2)cc1)C(=O)O [Example 18, (S)-2-Amino-5-(4-{[(2-hydroxycarbamoyl-benzo[b]thiophen-6-ylmethyl)-amino]-methyl}-phenoxy)-pentanoic acid] | 0.101 to 1
N[C@@H](Cc1ccc(Oc2ccc(CNCc3ccc4cc(C(=O)NO)sc4c3)cc2)cc1)C(=O)O [Example 27, (S)-2-Amino-3-[4-(4-{[(2-hydroxycarbamoyl-benzo[b]thiophen-6-ylmethyl)-amino]-methyl}-phenoxy)-phenyl]-propionic acid] | < 0.1
N[C@@H](CC1CCC(Oc2ccc(CNCc3ccc4cc(C(=O)NO)sc4c3)cc2)CC1)C(=O)O (stereo partly drawn) [Example 29, 2-(S)-Amino-3-[4-(4-{[(2-hydroxycarbamoyl-benzo[b]thiophen-6-ylmethyl)-amino]-methyl}-phenoxy)-cyclohexyl]-propionic acid] | < 0.1
NC(C(=O)O)C1CCC(Oc2ccc(CNCc3ccc4cc(C(=O)NO)sc4c3)cc2)CC1 (centres unmarked) [Example 31, Amino-[4(4-{[(2-hydroxycarbamoyl-benzo[b]thiophen-6-ylmethyl)-amino]-methyl}-phenoxy)-cyclohexyl]-acetic acid] | < 0.1

More lines, now with the values ahead:

IC50 [µM] | SMILES
< 0.1 | N[C@@H](CCOc1ccc(CNCc2ccc3cc(C(=O)NO)sc3c2)cc1)C(=O)O [Example 10, (S)-2-Amino-4-(4-{[(2-hydroxycarbamoyl-benzo[b]thiophen-6-ylmethyl)-amino]-methyl}-phenoxy)-butyric acid]
< 0.1 | N[C@@H](CCCOc1ccc(CNCc2ccc3cc(C(=O)NO)sc3c2)cc1)C(=O)O [Example 12, (S)-2-Amino-5-(4-{[(2-hydroxycarbamoyl-benzo[b]thiophen-6-ylmethyl)-amino]-methyl}-phenoxy)-pentanoic acid]
< 0.1 | N[C@H](CCCOc1ccc(CNCc2ccc3cc(C(=O)NO)sc3c2)cc1)C(=O)O [Example 16, (R)-2-Amino-5-(4-{[(2-hydroxycarbamoyl-benzo[b]thiophen-6-ylmethyl)-amino]-methyl}-phenoxy)-pentanoic acid]
< 0.1 | COc1cc(CNCc2ccc3cc(C(=O)NO)sc3c2)ccc1OCCC[C@H](N)C(=O)O [Example 20, (S)-2-Amino-5-(4-{[(2-hydroxycarbamoyl-benzo[b]thiophen-6-ylmethyl)-amino]-methyl}-2-methoxyphenoxy)-pentanoic acid]
< 0.1 | O=C(NO)c1cc2ccc(CNCc3ccc(OCCC[C@H](NC4CCCCC4)C(=O)O)cc3)cc2s1 [Example 23, (S)-2-Cyclohexylamino-5-(4-{[(2-hydroxycarbamoyl-benzo[b]thiophen-6-ylmethyl)-amino]-methyl}-phenoxy)-pentanoic acid]
< 0.1 | N[C@H](C(=O)O)c1ccc(Oc2ccc(CNCc3ccc4cc(C(=O)NO)sc4c3)cc2)cc1 [Example 25, (S)-Amino-[4-(4-{[(2-hydroxycarbamoyl-benzo[b]thiophen-6-ylmethyl)-amino]-methyl}-phenoxy)-phenyl]-acetic acid]
